Results from publication PMC11741115, “New Hydrogenated Phenanthrene Glycosides from the Edible Vegetable Elatostema tenuicaudatum W.T.Wang with DPP-IV Inhibitory and Hepatoprotective Activity” (Journal of Agricultural and Food Chemistry, 2025).

Key:
DPP-IV = molecular target: T1, DPP-IV (Homo sapiens, UniProt P27487); assay: DPP-IV inhibition activity (DPP-IV Activity Assay Kit, AMC fluorescence); type: biochemical; conditions: for IC50: pure compounds; for DPP-IV inhibition (in words): summary
T1 construct: purchased BioVision K779-100
Description: 2.7. DPP-IV inhibition activity
A commercially available DPP -IV Activity Assay Kit (K779 -100, BioVision) was employed to evaluate DPP-IV activity. The procedures were conducted according to the manufacturer’s instructions. DPP-IV enzymatically cleaves substrates, leading to the release o f the quenched fluorescent group AMC (7 -Amino-4-Methyl Coumarin). AMC detection was measured with a fluorescence reader at Ex/Em = 360/460 nm. […]

HepG2 cells = assay: Hepatoprotective effect against acetaminophen-induced hepatotoxicity in HepG2 cells (MTT); type: cell-based, Human; conditions: for viability at 50 µM: Homo sapiens, HepG2, 50 μM compound, pretreated 8 h, 6 mM APAP for 36 h, MTT, read-out: cell viability (cytoprotection against APAP)
Description: Human hepatocellular carcinoma HepG2 cells were obtained from the Bioresource Collection and Research Center (BCRC, Hsinchu, Taiwan). Cells culture was conducted with a complete medium consisting of DMEM (Dulbecco's Modified Eagle Medium, Gibco), 10% (v/v) fetal bovine serum (FBS) (Gibco), and 1% (v/v) antibiotic -antimycotic […] (Gibco, 15240062). Upon reaching at 80% confluence, cells were rinsed with PBS and detached using trypsin -EDTA (Gibco, 25200072) at 37 °C for 5 minutes. Subsequently, cells were seeded into specialized 96 -well plates (3 × 10^4/well, 100 µL/well) and incubated for 24 hours at 37 °C with 5% CO2. […]
control cells were used as a reference under the same conditions. The maximum absorbance value depended on the solvent used in the sample solution, and the percentage viability of cells was determined using the formula: […]. […]
3.9.2. Assess hepatoprotective effects of compounds […]
using an acetaminophen-induced hepatotoxicity HepG2 model. Cells were initially seeded in 96 -well plates at a density of 3 × 10^4 cells/well and then incubated under identical conditions with 5% CO 2 for 24 hours. Following this, cells were exposed to the test samples. After 8 hours, hepatotoxicity was induced using acetaminophen (Sigma Aldrich, A7085) at a concentration of 6 mM. The protective effects were assessed by determining cell viability using the MTT method 36 hours post - acetaminophen induc tion. Silymarin (at concentration of 50 μg/mL) was used as positive control. […]

T1 sequence (P27487 whole entry, species assumed): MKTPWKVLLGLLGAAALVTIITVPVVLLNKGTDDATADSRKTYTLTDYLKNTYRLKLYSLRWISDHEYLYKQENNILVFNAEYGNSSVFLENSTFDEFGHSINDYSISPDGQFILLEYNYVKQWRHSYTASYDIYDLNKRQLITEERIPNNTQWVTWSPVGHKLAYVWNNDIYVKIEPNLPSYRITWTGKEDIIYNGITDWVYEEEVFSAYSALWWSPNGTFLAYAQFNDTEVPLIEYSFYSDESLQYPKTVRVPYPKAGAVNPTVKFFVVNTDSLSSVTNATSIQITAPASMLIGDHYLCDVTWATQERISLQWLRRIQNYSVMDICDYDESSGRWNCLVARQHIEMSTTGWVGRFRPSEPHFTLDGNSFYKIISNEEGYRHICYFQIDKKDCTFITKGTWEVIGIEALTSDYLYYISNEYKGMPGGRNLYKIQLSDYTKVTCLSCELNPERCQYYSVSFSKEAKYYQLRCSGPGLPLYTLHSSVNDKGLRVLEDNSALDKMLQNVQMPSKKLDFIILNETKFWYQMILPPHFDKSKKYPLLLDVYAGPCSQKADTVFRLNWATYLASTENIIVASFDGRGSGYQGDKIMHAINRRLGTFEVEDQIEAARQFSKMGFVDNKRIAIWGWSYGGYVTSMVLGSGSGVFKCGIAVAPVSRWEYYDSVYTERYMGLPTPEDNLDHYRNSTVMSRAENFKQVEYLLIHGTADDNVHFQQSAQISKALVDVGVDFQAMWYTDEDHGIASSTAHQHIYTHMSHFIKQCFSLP

inhibition at 400 µM (DPP-IV)	inhibition at 150 µM (DPP-IV)	IC50 (DPP-IV)	DPP-IV inhibition (in words) (DPP-IV)	SMILES	hepatoprotective effect in acetaminophen-induced hepatotoxicity in HepG2 (in words) (HepG2 cells)	viability at 50 µM (HepG2 cells)
> 50%				COc1cc2c(cc1O[C@@H]1O[C@H](CO)[C@@H](O)[C@H](O)[C@H]1O)[C@@]1(O)C(=O)C[C@H](O)C[C@@H]1CC2 [Compound 1, elatostemanoside A]	significant hepatoprotective effects	85.6%
> 50%				COc1cc2c(cc1O[C@@H]1O[C@H](CO)[C@@H](O)[C@H](O)[C@H]1O)[C@@]1(O)C(=O)C[C@@H](O)C[C@@H]1CC2 [Compound 2, elatostemanoside B]		
> 50%	≥ 50%	142 ± 15.6 µM	weak effects	COc1cc2c(cc1O[C@@H]1O[C@H](CO)[C@@H](O)[C@H](O)[C@H]1O)[C@@]1(O)C(=O)C[C@H](O)C[C@H]1CC2 [Compound 5, elatostemanoside E]		
> 50%	≥ 50%	151 ± 11.8 µM	weak effects	COc1cc2c(cc1O[C@@H]1O[C@H](CO)[C@@H](O)[C@H](O)[C@H]1O)[C@@]1(O)C(=O)C[C@@H](O)C[C@H]1CC2 [Compound 6, elatostemanoside F]		
> 50%	≥ 50%	108 ± 19.6 µM	weak effects	COc1cc2c(cc1O[C@@H]1O[C@H](CO)[C@@H](O)[C@H](O)[C@H]1O)[C@@]1(O)C(=O)[C@@H](O)[C@H](O)C[C@H]1CC2 [Compound 8, elatostemanoside H]		
> 50%				COc1cc2c(cc1O[C@@H]1O[C@H](CO)[C@@H](O)[C@H](O)[C@H]1O)[C@@]1(OC)C(=O)C=CC[C@@H]1CC2 [Compound 10, elatostemanoside J]		

Continued, compound first:

SMILES	inhibition at 400 µM (DPP-IV)	inhibition at 150 µM (DPP-IV)	IC50 (DPP-IV)	DPP-IV inhibition (in words) (DPP-IV)	hepatoprotective effect in acetaminophen-induced hepatotoxicity in HepG2 (in words) (HepG2 cells)	viability at 50 µM (HepG2 cells)
COc1cc2c(cc1O[C@@H]1O[C@H](CO)[C@@H](O)[C@H](O)[C@H]1O)[C@@]1(O)C(=O)C=CC[C@@H]1CC2 [Compound 9, elatostemanoside I]					significant hepatoprotective effects	82.6%
COc1cc2c(cc1O[C@@H]1O[C@H](CO)[C@@H](O)[C@H](O)[C@H]1O)[C@@]1(O)C(=O)C=CC[C@H]1CC2 [Compound 11, elatostemanoside K]					significant hepatoprotective effects	81.6%
OC[C@H]1O[C@@H](Oc2cc3c(cc2O)CCc2cccc(O)c2-3)[C@H](O)[C@@H](O)[C@@H]1O [Compound 14, 7,4-dihydroxy-9,10-dihydrophenanthrene 6-O-β-D-glucopyranoside]	> 50%	≥ 50%	71.9 ± 8.9 µM	moderate inhibition	significant hepatoprotective effects	78.8%
COc1cc2c(cc1O[C@@H]1O[C@H](CO[C@@H]3O[C@@H](C)[C@H](O)[C@@H](O)[C@H]3O)[C@@H](O)[C@H](O)[C@H]1O)-c1c(O)cccc1CC2 [Compound 15, elatostemanoside O]	> 50%					
COc1cc2c(cc1OC1OC(CO)C(O)C(O)C1O)C1(O)C(=O)CC(C3=CCC4CCc5cc(OC)c(OC6OC(CO)C(O)C(O)C6O)cc5C4(O)C3=O)CC1CC2 (centres unmarked) [Compound 16, elatostemanoside P]	> 50%					
